# Laboratory results reported in patent publication US10406086B2, “Moisturizer and cosmetic including the same” (AJINOMOTO CO., INC., priority 2015, dated 2019).
# Like-named read-outs stand apart in the source and are kept apart here.
# Legend:
# [1] = Moisture absorption/retention test; assay type: physicochemical; details: for Increased weight ratio after 7 days at 35% RH (%) (B): following 65% RH; for (B)/(A) × 100(%): ratio of weight increase at 35% RH to that at 65% RH; for moisturizing power: compared with glycerol and sorbitol
# Source text: About 1 g of each compound was precisely weighed in a weighing bottle and the weighed samples were placed in a constant-temperature and constant-humidity chamber (LH-30-10, manufactured by NAGANO SCIENCE CO, LTD.) in which the humidity was set to 65% RH to measure a weight increase ratio (A) after 7 days. Subsequently, the same samples were placed in the constant-temperature and constant-humidity chamber in which the humidity was set to 35% RH to measure a weight increase ratio (B) after 7 days. It can be considered that, as the ratio of (B) to (A) becomes higher, more moisture can be retained even when the environment becomes low humidity and thus that the compound having the higher value of the ratio can be considered as a compound having higher moisturizing power.
# [2] = tested on: filaggrin gene; experiment: Filaggrin gene expression test by acyl valines or acyl alanines (real time PCR, 24 hours); assay type: cell-based; details: Homo sapiens
# Procedure: Human normal epidermal keratinocytes NHEK (NB) (manufactured by KURABO INDUSTRIES LTD.) were precultured with HuMedia-KG2 (manufactured by KURABO INDUSTRIES LTD.) and the precultured human normal epidermal keratinocytes were adjusted in a concentration of 15×10^4 cells/mL. After adjusting the concentration, 2 mL of the culture solution (that is, 30×10^4 cells/well) was poured to a plate having 6 wells and the poured culture solution was cultivated for 1 day. […] C12Ala), decanoyl-alanine (Example 21: C10Ala), octanoyl-alanine (Example 22: C8Ala), hexanoyl-alanine (Example 23: C6Ala), and butanoyl-alanine (Example 24: C4Ala)) were added to the wells so that each of the samples has the concentration illustrated in respective graphs and the added samples were reacted for 24 hours. After the reaction, entire RNA was extracted from the cells and subjected to reverse transcription. The amplified amounts of the target gene (filaggrin) were measured by real time PCR (n=2). […] GAPDH was used as a corrected gene. Calculation was carried out using a comparative CT method. TaqMan (registered trademark) Gene Expression was used as a primer and a probe and FAM was used as a fluorescent dye. The following evaluation was carried out depending on the amplified amounts. The results are listed in Table 2 and 3 and illustrated in FIGS. 4 and 5.
# [3] = tested on: Human normal epidermal keratinocytes NHEK (NB); experiment: Cytotoxicity test (Neutral Red, cell survival rate); assay type: cell-based; details: 500 μM, 24 hours; for Cell survival rate (%): relative to light absorbance of the control
# Procedure: Human normal epidermal keratinocytes NHEK (NB) (manufactured by KURABO INDUSTRIES LTD.) were precultured with HuMedia-KG2 (manufactured by KURABO INDUSTRIES LTD.) and the precultured human normal epidermal keratinocytes were adjusted in a concentration of 15×10^4 cells/mL. After adjusting the concentration, 2 mL of the culture solution (that is, 30×10^4 cells/well) was poured to a plate having 6 wells and the poured culture solution was cultivated for 1 day. Samples (lauroyl-valine (Example 25: C12Val), decanoyl-valine (Example 26: C10Val), octanoyl-valine (Example 27: C8Val), hexanoyl-valine (Example 28: C6Val), butanoyl-valine (Example 29: C4Val), and acetyl-valine (Example 30: C2Val)) were added to the wells so that each of the samples has the concentration illustrated in respective graphs and the added samples were reacted for 24 hours. Thereafter, the culture medium was discarded and replaced with 2 mL/well of Neutral Red solution. The resultant sample was further cultured for 2 hours. As the Neutral Red solution, a solution prepared by diluting Neutral Red (manufactured by KURABO INDUSTRIES LTD.) with HuMedia-KG2 culture medium/normal saline solution (2:1) to 1/100 was used. The cells stained with the Neutral Red solution were washed with PBS (-) one time, thereafter fixed by 1.5 mL/well of 1% CaCl2/1% formalin solution, extracted by adding 1.5 mL/well of 1% acetic acid/50% ethanol solution at room temperature for 20 minutes. The light absorbance of the resultant sample was measured using a plate reader at 540/630 nm.
# The following evaluation was carried out depending on the cell survival rates. The results are listed in Table 4 and illustrated in FIG. 6.
# [4] = 10 μM, 24 hours, NHEK (NB), control = 100%, read-out: Amplified amount (%)
# [5] = 10 μM, 24 hours, NHEK (NB), read-out: Evaluation (amplified amount)
# [6] = 24 hours, NHEK (NB), control = 100%, read-out: Amplified amount (%)
# [7] = 24 hours, NHEK (NB), read-out: Evaluation (amplified amount)
Compound,Evaluation (cell survival rate) [3],Cell survival rate (%) [3] [%],"activity at 500 µM [2, 6] [%]","activity at 500 µM [2, 7] [%]",also measured
"OCC(O)CO [Comparative Example 3, Glycerol, reference compound]",,,,,Increased weight ratio after 7 days at 35% RH (%) (B) [1]: 13.2%; Increased weight Ratio after 7 days at 65% RH (%) (A) [1]: 48.1%; (B)/(A) × 100(%) [1]: 27.4%
"OC[C@@H](O)[C@@H](O)[C@H](O)[C@@H](O)CO [Comparative Example 4, Sorbitol, reference compound]",,,,,Increased weight ratio after 7 days at 35% RH (%) (B) [1]: 0.5%; Increased weight Ratio after 7 days at 65% RH (%) (A) [1]: 4.2%; (B)/(A) × 100(%) [1]: 12.0%
"CCCCCCCC(=O)N[C@H](C(=O)[O-])C(C)C.[Na+] [Example 12, N-octanoyl-L-valine sodium salt]",,,,,Increased weight ratio after 7 days at 35% RH (%) (B) [1]: 8.4%; Increased weight Ratio after 7 days at 65% RH (%) (A) [1]: 25.4%; moisturizing power [1]: high moisturizing power; (B)/(A) × 100(%) [1]: 33.2%
"CCCCCCCC(=O)N[C@@H](C)C(=O)[O-].[Na+] [Example 13, N-octanoyl-L-alanine sodium salt]",,,,,Increased weight ratio after 7 days at 35% RH (%) (B) [1]: 10.6%; Increased weight Ratio after 7 days at 65% RH (%) (A) [1]: 29.6%; moisturizing power [1]: high moisturizing power; (B)/(A) × 100(%) [1]: 35.9%
"CCCCCCCCCCCC(=O)N[C@H](C(=O)O)C(C)C [Example 14, lauroyl-valine]",D (Lower than 50%),3,,,"activity at 10 µM [2, 4]: 200%; activity at 10 µM [2, 5]: > 200%; cytotoxicity ([3]; in words): high"
"CCCCCCCCCC(=O)N[C@H](C(=O)O)C(C)C [Example 15, decanoyl-valine]",B (75% or higher and lower than 99%),75,,,"activity at 10 µM [2, 4]: 171%; activity at 10 µM [2, 5]: 100 to 200%"
"CCCCCCCC(=O)N[C@H](C(=O)O)C(C)C [Example 16, octanoyl-valine]",A (99% or higher),100,302,> 200,
"CCCCCC(=O)N[C@H](C(=O)O)C(C)C [Example 17, hexanoyl-valine]",A (99% or higher),99,112,100 to 200,
"CCCC(=O)N[C@H](C(=O)O)C(C)C [Example 18, butanoyl-valine]",A (99% or higher),102,126,100 to 200,
"CC(=O)N[C@H](C(=O)O)C(C)C [Example 19, acetyl-valine]",A (99% or higher),105,141,100 to 200,
"CCCCCCCCCCCC(=O)N[C@@H](C)C(=O)O [Example 20, lauroyl-alanine]",,,,,"activity at 10 µM ([2]; NHEK, 24 h, read-out: Amplified amount (%)): 128%; activity at 10 µM ([2]; NHEK, 24 h, read-out: Evaluation (amplified amount)): 100 to 200%"
"CCCCCCCCCC(=O)N[C@@H](C)C(=O)O [Example 21, decanoyl-alanine]",,,,,"activity at 10 µM [2, 4]: 117%; activity at 10 µM [2, 5]: 100 to 200%"
"CCCCCCCC(=O)N[C@@H](C)C(=O)O [Example 22, octanoyl-alanine]",,,256,> 200,
"CCCCCC(=O)N[C@@H](C)C(=O)O [Example 23, hexanoyl-alanine]",,,125,100 to 200,
"CCCC(=O)N[C@@H](C)C(=O)O [Example 24, butanoyl-alanine]",,,162,100 to 200,
